From publication PMC11697029 (Nature Communications, 2025)

These molecules were tested against T1, RmlT (Listeria monocytogenes, UniProt Q8Y838) (assay: isothermal titration calorimetry).
T1 sequence (Q8Y838 1-623): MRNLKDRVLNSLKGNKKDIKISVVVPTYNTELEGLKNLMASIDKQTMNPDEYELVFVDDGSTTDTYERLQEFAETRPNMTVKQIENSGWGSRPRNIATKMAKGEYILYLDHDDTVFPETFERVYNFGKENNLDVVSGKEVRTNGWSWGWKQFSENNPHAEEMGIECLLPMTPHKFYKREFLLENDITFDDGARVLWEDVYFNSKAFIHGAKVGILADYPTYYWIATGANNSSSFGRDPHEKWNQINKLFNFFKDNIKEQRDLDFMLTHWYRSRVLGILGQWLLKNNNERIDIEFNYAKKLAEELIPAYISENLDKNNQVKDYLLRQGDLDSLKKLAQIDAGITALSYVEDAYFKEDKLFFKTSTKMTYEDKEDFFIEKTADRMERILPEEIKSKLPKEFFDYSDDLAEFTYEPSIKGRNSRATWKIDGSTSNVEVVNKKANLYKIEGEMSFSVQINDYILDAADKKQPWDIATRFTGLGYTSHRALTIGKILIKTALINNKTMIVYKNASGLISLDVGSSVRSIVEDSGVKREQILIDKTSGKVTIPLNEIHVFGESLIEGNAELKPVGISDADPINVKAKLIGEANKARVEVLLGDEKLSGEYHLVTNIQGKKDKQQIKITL
Type: binding

| Kd | Structure (SMILES) |
| --- | --- |
| ~10 µM | Cc1cn([C@H]2C[C@H](O)[C@@H](COP(=O)(O)OP(=O)(O)O[C@H]3O[C@H](CO)[C@@H](O)[C@H](O)[C@H]3O)O2)c(=O)[nH]c1=O [TDP-glucose] |
| ~13 µM | Cc1cn([C@H]2C[C@H](O)[C@@H](COP(=O)(O)OP(=O)(O)O[C@H]3O[C@@H](C)[C@H](O)[C@@H](O)[C@H]3O)O2)c(=O)[nH]c1=O [TDP-rhamnose] |
| ~50 µM | Cc1cn([C@H]2C[C@H](O)[C@@H](COP(=O)(O)OP(=O)(O)O)O2)c(=O)[nH]c1=O [TDP] |
